Here are results for two compounds from EP2752414A1, “Crystalline form of apixaban” (Sandoz AG, priority 2013, dated 2014).

Converted amounts (≈) assume the structure as drawn.

The nature of data set [1]: Equilibrium solubility, shake flask method (European Pharmacopeia). As to conditions: for Equilibrium solubility / solubility thermodynamic at 24 h: shaking at 400 rpm for 24 hours; for solubility thermodynamic at 24 h: aqueous buffer, 37 °C, thermodynamic from solid. The class given is physicochemical. The method, then: As used herein, the term "equilibrium solubility" refers to the maximum solubility of apixaban in various aqueous media of buffers of pH 1.2, 4.5 and 6.8 at 37 °C after 24 hours. The shaking is carried out at 400 rpm.
Equilibrium solubility of crystalline polymorphic Form A of apixaban and references apixaban Form N-1 was performed in various aqueous media of buffers of pH 1.2, 4.5 and 6.8 at 37°C. The solubility was measured using "shake flask" method described in European Pharmacopeia. The shaking was carried out at 400 RMP for 24 hours. Table 2: Equilibrium solubility of crystalline polymorphic Form A of apixaban and reference apixaban Form N-1 in various aqueous media of buffers.
Equilibrium solubility of crystalline polymorphic Form A of apixaban and references apixaban Form N-1 was performed in various aqueous media of buffers of pH 1.2, 4.5 and 6.8 at 37°C. The solubility was measured using "shake flask" method described in European Pharmacopeia. The shaking was carried out at 400 rmp for 24 hours. Table 2: Equilibrium solubility of crystalline polymorphic Form A of apixaban and reference apixaban Form N-1 in various aqueous media of buffers.

Data set [2] is described as follows: Physical stability of the crystalline form on storage at room atmosphere conditions. The class given is physicochemical. As to conditions: after 8 months stored at room atmosphere conditions. The source says:
For a pharmaceutical use a solubility of the form which active pharmaceutical ingredient forms is a criterion of exceptional importance under certain circumstances depending on the choice of formulation or the choice of manufacturing process. For drugs which are to be taken orally it is, in general, very important that active pharmaceutical ingredients are sufficiently soluble and bioavailable. Apixaban is such a drug, i.e. characterized by a low solubility in aqueous media. Unexpectedly, improved solubility of crystalline polymorph Form A of apixaban contributes to sufficient bioavailability of apixaban containing drugs. At the same time, a high physical stability of crystalline Form A is preserved.

Turning to `COc1ccc(-n2nc(C(N)=O)c3c2C(=O)N(c2ccc(N4CCCCC4=O)cc2)CC3)cc1` [Form A, 1-(4-methoxyphenyl)-7-oxo-6-(4-(2-oxopiperidin-1-yl)phenyl)-4,5,6,7-tetrahydro-1H-pyrazolo[3,4-c]pyridine-3-carboxamide], the Equilibrium solubility in data set [1] (aqueous buffer pH 1.2, 37°C) was 58 µg/mL; in data set [1] (aqueous buffer pH 4.5, 37°C), 74 µg/mL; in data set [1] (aqueous buffer pH 6.8, 37°C), 72 µg/mL. For the same compound, the “comparison of equilibrium solubility with reference polymorph Form N-1” value in data set [1] (aqueous buffers pH 1.2, 4.5 and 6.8, 37°C (Table 2)) is on record as “higher solubility”. Moreover, the “physical stability (crystalline structure)” value in data set [2] is reported as “the crystalline structure remains unchanged”.
`COc1ccc(-n2nc(C(N)=O)c3c2C(=O)N(c2ccc(N4CCCCC4=O)cc2)CC3)cc1` [Form N-1, 1-(4-methoxyphenyl)-7-oxo-6-(4-(2-oxopiperidin-1-yl)phenyl)-4,5,6,7-tetrahydro-1H-pyrazolo[3,4-c]pyridine-3-carboxamide, reference compound] came in with an Equilibrium solubility in data set [1] (aqueous buffer pH 6.8, 37°C) of 30 µg/mL. Further, the thermodynamic solubility at 24 h was 44 µg/mL (≈ 95.8 µM) in data set [1] (pH 1.2, simulated gastric fluid, aqueous buffer pH 1.2, 37°C) and 53 µg/mL (≈ 115 µM) in data set [1] (pH 4.5, aqueous buffer, aqueous buffer pH 4.5, 37°C).

A word on the thermodynamic solubility: it is the concentration in solution at equilibrium with solid.
